The structures appear in SMILES notation. Activity calls are given as the source filed them. The rule behind the calls is not given here.

Test [1] concerns MCF7. Description: Cytotoxicity against human MCF7 cells after 96 hrs by SRB assay. Type of test: functional, cell-based. For orientation: The SRB assay estimates cell density from bound dye.
Test [2] concerns HT-29. The test can be described thus: Cytotoxicity against human HT-29 cells after 96 hrs by SRB assay. Type of test: functional, cell-based.
In test [3] the test system is 8505C. The test can be described thus: Cytotoxicity against human 8505C cells after 96 hrs by SRB assay. In kind it is functional, cell-based.
Test [4] concerns A2780. Description: Cytotoxicity against human A2780 cells after 96 hrs by SRB assay. Type of test: functional, cell-based.
Test [5] can be described thus: Cell cycle arrest in human 518A2 cells assessed as accumulation at S phase at 50 uM after 24 hrs by propidium iodide staining (reference value: 44.643%). Type of test: functional, cell-based.
The subject of test [6] is 518A2. The test can be described thus: Induction of apoptosis in human 518A2 cells assessed as total apoptotic cells at 50 uM after 6 hrs by Annexin V FITC and propidium iodide staining by FACS analysis. In kind it is functional. (In general: Flow cytometry measures light scatter and fluorescence of single cells or particles in a stream.)
A short description of test [7]: Cell cycle arrest in human 518A2 cells assessed as accumulation at G2/M phase at 50 uM after 24 hrs by propidium iodide staining (reference value: 8.694%). Type of test: functional, cell-based.
The nature of test [8]: Cell cycle arrest in human 518A2 cells assessed as accumulation at G1/G0 phase at 50 uM after 24 hrs by propidium iodide staining (reference value: 46.662%). In kind it is functional, cell-based.
Test [9] concerns NIH3T3. Description: Cytotoxicity against mouse NIH/3T3 cells after 96 hrs by SRB assay. Type of test: cell-based.
Test [10] is described as follows: Cytotoxicity against human 518A2 cells after 96 hrs by SRB assay. In kind it is functional, cell-based.
Test [11] deals with 518A2. The test can be described thus: Induction of apoptosis in human 518A2 cells assessed as necrotic cells at 50 uM after 6 hrs by Annexin V FITC and propidium iodide staining by FACS analysis. In kind it is functional.
Test [12] relates to A549. The test can be described thus: Cytotoxicity against human A549 cells after 96 hrs by SRB assay. Type of test: functional, cell-based.
Test [13] concerns 518A2. Description: Induction of apoptosis in human 518A2 cells assessed as viable cells at 50 uM after 6 hrs by Annexin V FITC and propidium iodide staining by FACS analysis. Type of test: functional. Particulars: 518A2, 6 h, read-out: Activity.
The test system of test [14] is 518A2. The test can be described thus: Induction of apoptosis in human 518A2 cells assessed as viable cells at 30 uM after 6 hrs by Annexin V FITC and propidium iodide staining by FACS analysis. The note with it: 518A2, 6 h, read-out: Activity. In kind it is functional.
Test [15] in a line: Cell cycle arrest in human 518A2 cells assessed as accumulation at G1/G0 phase at 30 uM after 24 hrs by propidium iodide staining (reference value: 46.662%). In kind it is functional, cell-based.
For test [16], the system named is 518A2. The test can be described thus: Induction of apoptosis in human 518A2 cells assessed as total apoptotic cells at 30 uM after 6 hrs by Annexin V FITC and propidium iodide staining by FACS analysis. In kind it is functional.
Test [17] in a line: Cell cycle arrest in human 518A2 cells assessed as accumulation at S phase at 30 uM after 24 hrs by propidium iodide staining (reference value: 44.643%). Type of test: functional, cell-based.
The nature of test [18]: Cell cycle arrest in human 518A2 cells assessed as accumulation at G2/M phase at 30 uM after 24 hrs by propidium iodide staining (reference value: 8.694%). Type of test: functional, cell-based.
Test [19] deals with 518A2. Description: Induction of apoptosis in human 518A2 cells assessed as necrotic cells at 30 uM after 6 hrs by Annexin V FITC and propidium iodide staining by FACS analysis. In kind it is functional.
Test [20] deals with 518A2. Description: Induction of apoptosis in human 518A2 cells assessed as formation of DNA ladder at 50 uM after 24 hrs using AO/PI dye by fluorescence microscopic analysis. Type of test: functional, cell-based.

For the molecule `COC(=O)[C@@]1(C)CC[C@]2(C)CC[C@]3(C)C(=CC(=O)[C@@H]4[C@@]5(C)CC[C@H](OC(C)=O)C(C)(C)[C@@H]5CC[C@]43C)[C@@H]2C1`, the IC50 was 51.6 µmol in [1]; 77.4 µmol in test [2]; 116.4 µmol in test [3]; 40.5 µmol in [4]; 101.4 µmol in [9]; 26.1 µmol in [10]. This molecule also gave an IC50 in [12] of 42.6 µmol. Besides, the Activity was 4% in [5]; 16.8% in test [6]; -7% in test [7]; -2% in [8]; 2.5% in test [11]. Further, in test [13], the viability at 50 µM was -19.3%.

With `COC(=O)[C@@]1(C)CC[C@]2(C)CC[C@]3(C)[C@@]4(C(=O)OC1=C24)C(=O)[C@@H]1[C@@]2(C)CC[C@H](OC(C)=O)C(C)(C)[C@@H]2CC[C@]13C`, in test [14], the viability at 30 µM is -4.3%. Also, the IC50 in [1] turned out to be 33.5 µmol; in [2], 58.7 µmol; in test [3], 73.2 µmol; in test [4], 19.7 µmol; in [9], 38.1 µmol; in [10] it was 14.7 µmol. The IC50 in test [12] was 15 µmol. Besides, the Activity in test [15] is 11%; in [16] it was 3.9%; in [17], -8%; in test [18], -15%; in test [19] it was 0.5%.

Consider `COC(=O)[C@@]1(C)CC[C@]2(C)CC[C@]3(C)c4c([se]c1c42)C(=O)[C@@H]1[C@@]2(C)CC[C@H](OC(C)=O)C(C)(C)[C@@H]2CC[C@]13C`, for which the IC50 was found to be 45.6 µmol in [1]; 67.2 µmol in [2]; 42.2 µmol in test [3]; 33.7 µmol in test [4]; 46.1 µmol in test [9]; 36.7 µmol in test [10]. The molecule further gave an IC50 in [12] of 46.9 µmol. In addition, the outcome in test [20] was Active. Further, the Activity was 8% in test [5]; 13.2% in [6]; -86% in [7]; 9% in test [8]; 1.8% in test [11]. The viability at 50 µM in test [13] was -15%.
